Structures can show the parent of a compound that is named as a salt. Where two headings read alike, the source gives them in different places.
Assays:
[1] = tested on: pseudotyped VSV G particles (VSVpp); experiment: microbe, parasite or virus in culture; assay type: cell-based, vesicular stomatitis virus
[2] = tested on: pseudotyped HCV GT1b particles (HCVpp); experiment: microbe, parasite or virus in culture; assay type: cell-based, HCV GT1b Con1 strain
[3] = Vesicular stomatitis virus, 72 h, read-out: VSVpp (EC50, μM)
[4] = Hepatitis C virus, GT1B, 72 h, read-out: HCVpp GT-1b (EC50, μM)

Row | Compound | EC50 ([1]; read-out: VSVpp (EC50)) | EC50 ([2]; read-out: HCVpp GT-1b (EC50)) | EC50 [1, 3] | EC50 [2, 4]
1 | 5-[4-(5-Amino-1H-[1,2,4]triazol-3-ylamino)-2-chloro-6-trifluoromethyl-phenyl]-pyridine-2-sulfonic acid tert-butylamide [Compound 24] | 4.1 µM | 0.008 µM | – | –
2 | COc1ccc(-c2c(Cl)cc(Nc3n[nH]c(N)n3)cc2Cl)cn1 [Compound 1, N*3*-[3,5-Dichloro-4-(6-methoxy-pyridin-3-yl)-phenyl]-1H-[1,2,4]triazole-3,5-diamine] | – | – | 3.7 µM | 0.767 µM
3 | CS(=O)(=O)c1cncc(-c2c(Cl)cc(Nc3n[nH]c(N)n3)cc2Cl)c1 [Compound 2, N*3*-[3,5-Dichloro-4-(5-methanesulfonyl-pyridin-3-yl)-phenyl]-1H-[1,2,4]triazole-3,5-diamine] | – | – | ≥ 10 µM | 0.386 µM
4 | Nc1nc(Nc2cc(Cl)c(-c3ccc(=O)[nH]c3)c(Cl)c2)n[nH]1 [Compound 3, 5-[4-(5-Amino-1H-[1,2,4]triazol-3-ylamino)-2,6-dichloro-phenyl]-1H-pyridin-2-one] | – | – | ≥ 10 µM | 0.364 µM
5 | Nc1ccc(-c2c(Cl)cc(Nc3n[nH]c(N)n3)cc2Cl)cn1 [Compound 4, N*3*-[4-(6-Amino-pyridin-3-yl)-3,5-dichloro-phenyl]-1H-[1,2,4]triazole-3,5-diamine] | – | – | 1.4 µM | 0.173 µM
6 | Nc1ncc(-c2c(Cl)cc(Nc3n[nH]c(N)n3)cc2Cl)cn1 [Compound 5, N*3*-[4-(2-Amino-pyrimidin-5-yl)-3,5-dichloro-phenyl]-1H-[1,2,4]triazole-3,5-diamine] | – | – | 0.4 µM | 0.1 µM
7 | COc1cc(-c2c(Cl)cc(Nc3n[nH]c(N)n3)cc2Cl)ccn1 [Compound 6, N3-(3,5-dichloro-4-(2-methoxypyridin-4-yl)phenyl)-1H-1,2,4-triazole-3,5-diamine] | – | – | ≥ 10 µM | 0.33 µM
8 | Nc1nc(Nc2cc(Cl)c(-c3cc[nH]c(=O)c3)c(Cl)c2)n[nH]1 [Compound 7, 4-[4-(5-Amino-1H-[1,2,4]triazol-3-ylamino)-2,6-dichloro-phenyl]-1H-pyridin-2-one] | – | – | ≥ 10 µM | 0.809 µM
9 | CS(=O)(=O)Nc1ccc(-c2c(Cl)cc(Nc3n[nH]c(N)n3)cc2Cl)cn1 [Compound 8, N-{5-[4-(5-Amino-1H-[1,2,4]triazol-3-ylamino)-2,6-dichloro-phenyl]-pyridin-2-yl}-methanesulfonamide] | – | – | ≥ 10 µM | 0.386 µM
10 | Nc1n[nH]c(Nc2cc(F)c(-c3ccc(F)nc3)c(C(F)(F)F)c2)n1 [Compound 9, N^5-(3-Fluoro-4-(6-fluoropyridin-3-yl)-5-trifluoromethylphenyl)-1H-[1,2,4]-triazole-3,5-diamine] | – | – | 31.1 µM | 0.998 µM
11 | Nc1n[nH]c(Nc2cc(F)c(-c3cccnc3)c(C(F)(F)F)c2)n1 [Compound 10, N^5-(3-Fluoro-4-(pyridin-3-yl)-5-trifluoromethylphenyl)-1H-[1,2,4]-triazole-3,5-diamine] | – | – | 34.2 µM | 1.24 µM
12 | CS(=O)(=O)c1ccc(-c2c(Cl)cc(Nc3nc(N)n[nH]3)cc2Cl)cn1 [Compound 11, N^5-(3,5-Dichloro-4-(6-methanesulfonyl-pyridin-3-yl)-phenyl)-1H-[1,2,4]-triazole-3,5-diamine] | – | – | 2.2 µM | 0.271 µM
13 | CC(C)(C)OC(=O)N1CC2(C1)CN(c1c(Cl)cc(Nc3nc(N)n[nH]3)cc1Cl)C2 [Compound 12, 6-[4-(5-Amino-2H-[1,2,4]triazol-3-ylamino)-2,6-dichlorophenyl]-2,6-diaza-spiro[3.3]heptane-2-carboxylic acid tert-butyl ester] | – | – | ≥ 10 µM | 0.216 µM
14 | NCC1(CO)CN(c2c(Cl)cc(Nc3nc(N)n[nH]3)cc2Cl)C1 [Compound 13, {3-Aminomethyl-1-[4-(5-amino-2H-[1,2,4]triazol-3-ylamino)-2,6-dichlorophenyl]-azetidin-3-yl}-methanol] | – | – | ≥ 10 µM | 10 µM
15 | Nc1nc(Nc2ccc(-c3cccnn3)c(Cl)c2)n[nH]1 [Compound 14, N3-(3-chloro-4-(pyridazin-3-yl)phenyl)-1H-1,2,4-triazole-3,5-diamine] | – | – | 15 µM | 6.52 µM
16 | Nc1nc(Nc2cc(Cl)c(-n3cccn3)c(Cl)c2)n[nH]1 [Compound 17, N3-(3,5-dichloro-4-(1H-pyrazol-1-yl)phenyl)-1H-1,2,4-triazole-3,5-diamine] | – | – | 34.6 µM | 4.14 µM
17 | CC(C)(C)OC(=O)N1CC=C(c2c(Cl)cc(Nc3n[nH]c(N)n3)cc2Cl)CC1 [Compound 18, tert-Butyl 4-(4-(5-amino-1H-1,2,4-triazol-3-ylamino)-2,6-dichlorophenyl)-5,6-dihydropyridine-1(2H)-carboxylate] | – | – | ≥ 10 µM | 0.088 µM
18 | CC(C)(NS(=O)(=O)c1ccc(-c2c(Cl)cc(Nc3n[nH]c(N)n3)cc2C(F)(F)F)cn1)C(F)(F)F [Compound 25, 5-[4-(5-Amino-1H-[1,2,4]triazol-3-ylamino)-2-chloro-6-trifluoromethyl-phenyl]-pyridine-2-sulfonic acid (2,2,2-trifluoro-1,1-dimethyl-ethyl)-amide] | – | – | ≥ 10 µM | 0.005 µM
19 | Nc1nc(Nc2ccc(-n3ccccc3=O)cc2)n[nH]1 [Compound 28, 1-[4-(5-Amino-1H-[1,2,4]triazol-3-ylamino)-phenyl]-1H-pyridin-2-one] | – | – | ≥ 100 µM | 100 µM
20 | Nc1nc(Nc2ccc(-n3ccccc3=O)c(Cl)c2)n[nH]1 [Compound 29, 1-[4-(5-Amino-1H-[1,2,4]triazol-3-ylamino)-2-chloro-phenyl]-1H-pyridin-2-one] | – | – | 8.1 µM | 13.7 µM
21 | Nc1nc(Nc2cc(Cl)c(-n3ccccc3=O)c(Cl)c2)n[nH]1 [Compound 30, 1-[4-(5-Amino-1H-[1,2,4]triazol-3-ylamino)-2,6-dichloro-phenyl]-1H-pyridin-2-one] | – | – | 5.6 µM | 5.75 µM
22 | Nc1nc(Nc2cc(Cl)c(C3=NCCCN3)c(Cl)c2)n[nH]1 [Compound 31, N3-(3,5-dichloro-4-(1,4,5,6-tetrahydropyrimidin-2-yl)phenyl)-1H-1,2,4-triazole-3,5-diamine. trifluoroacetic salt] | – | – | 4.7 µM | 5.45 µM
23 | N3-(2-chloro-4′-(4-methylpiperazin-1-yl)-6-(trifluoromethyl)biphenyl-4-yl)-1H-1,2,4-triazole-3,5-diamine [Compound 27] | – | 0.301 µM | – | –
24 | N3-(3,5-dichloro-4-(1,2,3,6-tetrahydropyridin-4-yl)phenyl)-1H-1,2,4-triazole-3,5-diamine [Compound 19] | – | 0.505 µM | – | –
25 | N3-(3-Chloro-4-(1-methyl-1H-tetrazol-5-yl)phenyl)-1H-1,2,4-triazole-3,5-diamine [Compound 15] | – | 6.72 µM | – | –
26 | N3-(3-chloro-4-(1-methyl-1H-1,2,4-triazol-5-yl)phenyl)-1H-1,2,4-triazole-3,5 diamine [Compound 16] | – | 34.8 µM | – | –
27 | N3-[3-Chloro-4-(1,2,3,6-tetrahydro-pyridin-4-yl)-5-trifluoromethyl-phenyl]-1H-[1,2,4]triazole-3,5-diamine hydrochloride [Compound 21] | – | 0.568 µM | – | –
28 | N*3*-(3,5-Dichloro-4-[1,2,4]triazolo[4,3-a]pyridin-3-yl-phenyl)-1H-[1,2,4]triazole-3,5-diamine [Compound 22] | – | 2.04 µM | – | –
